ChEMBL document CHEMBL1201862, “PubChem BioAssay data set” (2004)
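Assay format: 96-well plates, 48-hour exposure. GI50 = concentration required for 50% inhibition of growth.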 Calls of active or inactive are those of the source. No stated cut-off is given here; in the data, active = GI50 up to about 1.1 µM and inactive = higher.

What was measured:
Test in all cases: inhibition of tumour cell growth, NCI panel, 48 h
UACC-62 = system: UACC-62
MDA-N = system: MDA-N
TK-10 = system: TK-10
OVCAR-3 = system: OVCAR-3
OVCAR-4 = system: OVCAR-4
SK-MEL-28 = system: SK-MEL-28
HCT-15 = system: HCT-15
HCT-116 = system: HCT-116
LOX IMVI = system: LOX IMVI
HCC 2998 = system: HCC 2998
MCF7 = system: MCF7
SK-MEL-2 = system: SK-MEL-2
SF-295 = system: SF-295
KM12 = system: KM12
MOLT-4 = system: MOLT-4
RPMI-8226 = system: RPMI-8226
A498 = system: A498
NCI-H522 = system: NCI-H522
M14 = system: M14
DU-145 = system: DU-145

## CCOc1c(Br)cc(Br)cc1C=C(C#N)C#N
UACC-62
  GI50: 6.08 µM (inactive)
MDA-N
  GI50: 1.83 µM (inactive)
TK-10
  GI50: 5.43 µM (inactive)
OVCAR-3
  GI50: > 10 µM (inactive)
OVCAR-4
  GI50: > 10 µM (inactive)
SK-MEL-28
  GI50: 8.26 µM (inactive)
HCT-15
  GI50: 2.96 µM
HCT-116
  GI50: 0.405 µM (active)
LOX IMVI
  GI50: 1.66 µM (inactive)
HCC 2998
  GI50: > 10 µM (inactive)
MCF7
  GI50: 6.21 µM (inactive)
SK-MEL-2
  GI50: > 10 µM (inactive)
SF-295
  GI50: 7.53 µM (inactive)
KM12
  GI50: 5.93 µM (inactive)
MOLT-4
  GI50: 2.05 µM (inactive)
RPMI-8226
  GI50: 0.942 µM (active)
A498
  GI50: 1.49 µM (inactive)

## CN(C(=O)C12C3C4C1C1C2C3C41C(O)C(C)(C)C)C(C)(C)C (stereo not given)
UACC-62
  GI50: > 100 µM (inactive)
TK-10
  GI50: > 100 µM (inactive)
OVCAR-3
  GI50: > 100 µM (inactive)
OVCAR-4
  GI50: > 100 µM (inactive)
SK-MEL-28
  GI50: > 100 µM (inactive)
HCT-116
  GI50: > 100 µM (inactive)
LOX IMVI
  GI50: > 100 µM (inactive)
HCC 2998
  GI50: > 100 µM (inactive)
NCI-H522
  GI50: 58.2 µM (inactive)
SK-MEL-2
  GI50: > 100 µM (inactive)
M14
  GI50: > 100 µM (inactive)
SF-295
  GI50: > 100 µM (inactive)
KM12
  GI50: > 100 µM (inactive)
MOLT-4
  GI50: > 100 µM (inactive)
RPMI-8226
  GI50: > 100 µM (inactive)
A498
  GI50: > 100 µM (inactive)

## CN(CCCNC(=O)c1cn(C)c2c1Cc1ccccc1-2)CCCNC(=O)c1cn(C)c2c1Cc1ccccc1-2
UACC-62
  GI50: 13.8 µM (inactive)
MDA-N
  GI50: 3.58 µM (inactive)
TK-10
  GI50: 11.6 µM (inactive)
OVCAR-3
  GI50: 15.6 µM (inactive)
OVCAR-4
  GI50: 12.8 µM (inactive)
SK-MEL-28
  GI50: 10.8 µM (inactive)
HCT-15
  GI50: 11.2 µM
HCT-116
  GI50: 9.33 µM (inactive)
LOX IMVI
  GI50: 6.82 µM (inactive)
MCF7
  GI50: 10.2 µM (inactive)
SK-MEL-2
  GI50: 16.7 µM (inactive)
M14
  GI50: 3.81 µM (inactive)
SF-295
  GI50: 12.3 µM (inactive)
KM12
  GI50: 13 µM (inactive)
MOLT-4
  GI50: 3.35 µM (inactive)
RPMI-8226
  GI50: 21.3 µM (inactive)
A498
  GI50: 11.9 µM (inactive)

## COc1cccc2c1[C@H]1OC(=O)NC1CCCCC2 (stereo not given in full)
UACC-62
  GI50: > 100 µM (inactive)
TK-10
  GI50: > 100 µM (inactive)
OVCAR-3
  GI50: > 100 µM (inactive)
OVCAR-4
  GI50: > 100 µM (inactive)
SK-MEL-28
  GI50: > 100 µM (inactive)
HCT-15
  GI50: > 100 µM
HCT-116
  GI50: > 100 µM (inactive)
LOX IMVI
  GI50: > 100 µM (inactive)
HCC 2998
  GI50: > 100 µM (inactive)
NCI-H522
  GI50: > 100 µM (inactive)
SK-MEL-2
  GI50: > 100 µM (inactive)
M14
  GI50: > 100 µM (inactive)
SF-295
  GI50: > 100 µM (inactive)
KM12
  GI50: > 100 µM (inactive)
MOLT-4
  GI50: > 100 µM (inactive)
RPMI-8226
  GI50: > 100 µM (inactive)
A498
  GI50: > 100 µM (inactive)

## N=C(N)NCCN1CC2CCC(CC2)C1
UACC-62
  GI50: > 100 µM (inactive)
MDA-N
  GI50: 51.9 µM (inactive)
TK-10
  GI50: > 100 µM (inactive)
OVCAR-3
  GI50: > 100 µM (inactive)
OVCAR-4
  GI50: > 100 µM (inactive)
SK-MEL-28
  GI50: > 100 µM (inactive)
HCT-15
  GI50: > 100 µM
HCT-116
  GI50: > 100 µM (inactive)
LOX IMVI
  GI50: > 100 µM (inactive)
HCC 2998
  GI50: > 100 µM (inactive)
NCI-H522
  GI50: > 100 µM (inactive)
SK-MEL-2
  GI50: > 100 µM (inactive)
M14
  GI50: > 100 µM (inactive)
SF-295
  GI50: > 100 µM (inactive)
KM12
  GI50: > 100 µM (inactive)
MOLT-4
  GI50: > 100 µM (inactive)
RPMI-8226
  GI50: > 100 µM (inactive)
DU-145
  GI50: > 100 µM (inactive)
A498
  GI50: > 100 µM (inactive)

## CC1(C)O[C@@H]([C@H](O)CO)[C@H](O)[C@@H](C2SCCCS2)O1
UACC-62
  GI50: > 100 µM (inactive)
TK-10
  GI50: > 100 µM (inactive)
OVCAR-3
  GI50: > 100 µM (inactive)
OVCAR-4
  GI50: > 100 µM (inactive)
SK-MEL-28
  GI50: > 100 µM (inactive)
HCT-15
  GI50: > 100 µM
HCT-116
  GI50: > 100 µM (inactive)
HCC 2998
  GI50: > 100 µM (inactive)
MCF7
  GI50: > 100 µM (inactive)
SK-MEL-2
  GI50: > 100 µM (inactive)
M14
  GI50: > 100 µM (inactive)
SF-295
  GI50: > 100 µM (inactive)
KM12
  GI50: > 100 µM (inactive)
MOLT-4
  GI50: > 10 µM (inactive)
RPMI-8226
  GI50: 50.6 µM (inactive)
DU-145
  GI50: > 100 µM (inactive)
A498
  GI50: 59.8 µM (inactive)

## COc1cccc(C2CC(=O)c3cccn32)c1 (stereo not given)
UACC-62
  GI50: > 100 µM (inactive)
TK-10
  GI50: > 100 µM (inactive)
OVCAR-3
  GI50: > 100 µM (inactive)
OVCAR-4
  GI50: > 100 µM (inactive)
SK-MEL-28
  GI50: > 100 µM (inactive)
HCT-15
  GI50: > 100 µM
HCT-116
  GI50: > 100 µM (inactive)
LOX IMVI
  GI50: > 100 µM (inactive)
HCC 2998
  GI50: > 100 µM (inactive)
NCI-H522
  GI50: > 100 µM (inactive)
MCF7
  GI50: > 100 µM (inactive)
SK-MEL-2
  GI50: > 100 µM (inactive)
M14
  GI50: > 100 µM (inactive)
SF-295
  GI50: > 100 µM (inactive)
KM12
  GI50: > 100 µM (inactive)
MOLT-4
  GI50: 71.8 µM (inactive)
RPMI-8226
  GI50: > 100 µM (inactive)
DU-145
  GI50: > 100 µM (inactive)
A498
  GI50: > 100 µM (inactive)

## COc1ccc(/C=c2\c(=O)[nH]c3nc4ccccc4c(=O)n23)cc1
UACC-62
  GI50: 42 µM (inactive)
TK-10
  GI50: > 100 µM (inactive)
OVCAR-3
  GI50: 81.5 µM (inactive)
OVCAR-4
  GI50: > 100 µM (inactive)
SK-MEL-28
  GI50: 42.5 µM (inactive)
HCT-15
  GI50: 64 µM
HCT-116
  GI50: 70 µM (inactive)
LOX IMVI
  GI50: 45.9 µM (inactive)
HCC 2998
  GI50: 80.5 µM (inactive)
NCI-H522
  GI50: 37.3 µM (inactive)
MCF7
  GI50: 49.9 µM (inactive)
SK-MEL-2
  GI50: > 100 µM (inactive)
M14
  GI50: 75.2 µM (inactive)
SF-295
  GI50: > 100 µM (inactive)
KM12
  GI50: 73.5 µM (inactive)
MOLT-4
  GI50: 56.5 µM (inactive)
RPMI-8226
  GI50: 58.3 µM (inactive)
DU-145
  GI50: 61.2 µM (inactive)
